According to PMC10721898, “C5 methylation confers accessibility, stability and selectivity to picrotoxinin” (Nature Communications, 2023):

Columns and labels:
[1] = system: rat GABAA ion channel; test: Non-selective rat GABAA ion channel [3H]TBOB binding (antagonist radioligand) assay, rat cerebral cortex; conditions: for IC50: [3H]TBOB displacement, n = 1
Experimental: The structurally privileged 5-methyl series was assayed for binding to both GABAA receptors (rat cortex membrane preparations) and RDL (expressed in Xenopus oocytes) and compared directly to the parent PXN (C5-H) series. The parallel series of PXN and 5MePXN analogs allowed us to interrogate the effect of the synthetically-enabling and stabilizing C5 methyl. […]
4. Rat GABAA receptors binding assay
Non-selective rat GABAA ion channel [3H] TBOB binding (Antagonist Radioligand) assay was conducted by Eurofins Pharma Discovery Service of Eurofins Cerep, France.
Compound binding was calculated as a % inhibition of the binding of the radioactive ly labeled ligand [3H] TBOB (t‐[3H]Butylbicycloorthobenzoate) for rat GABAA ion channels.9 A 20.0 mM stock solution was prepared in DMSO from each test compound to evaluate radioligand displacement of [3H] TBOB from rat cerebral cortex GABAA receptors at different concentrations.
The results are expressed as a percent of control specific binding measured specific binding*100 […]
and as a percent inhibition of control specific binding
100 − (measured specific binding*100) […]
obtained in the presence of the test compounds.
The IC50 values (concentration causing a half -maximal inhibition of control specific binding) and Hill coefficients (nH) were determined by non -linear regression analysis of th e competition curves generated with mean replicate values using Hill equation curve fitting […]
where Y = specific binding, A = left asymptote of the curve, D = right asymptote of the curve , C = compound concentration, C 50 = IC50, and nH = slope factor. This analysis was performed using software developed at Cerep (Hill software) and validated by comparison with data generated by th e commercial software SigmaPlot® 4.0 for Windows ® (© 1997 by SPSS Inc.).
The inhibition constants (K i) were calculated using the Cheng Prusoff equation where L = concentration of radioligand in the assay, and KD = affinity of the radioligand for the recept or. A scatchard plot is used to determine the K D.
Supplementary Table 8. IC50 values of test compound
Compound IC50 (µM) Compound IC50 (µΜ)

[2] = Stability in mouse plasma; format: in vitro ADME; conditions: for T½ in mouse plasma / half-life at 2 µM: 37 °C, incubation to 120 min, extrapolated half-life, n = 2; for half-life at 2 µM / remaining at 0 h, 2 µM / remaining at 10 min, 2 µM / remaining at 0.5 h, 2 µM / remaining at 1 h, 2 µM / remaining at 2 h, 2 µM: male, CD-1, mouse, plasma; for half-life at 2 µM: read-out: T½ in mouse plasma; for remaining at 0 h, 2 µM: 0 min; for remaining at 0.5 h, 2 µM: 30 min; for remaining at 1 h, 2 µM: 60 min; for remaining at 2 h, 2 µM: 120 min
Text: We investigated the relative rates of esterase-mediated hydrolysis[17] observed in mouse and human plasma, to evaluate potential for future translational applications. […] Due to the high stability of the C15 lactone, identified above, combined with the kinetic lability and reversible opening of the C11 lactone identified previously, enzymatic degradation in serum likely reflects a combination of reversible C11 hydrolysis[38] (unaffected by C5 methylation) and irreversible C15 hydrolysis (obstructed by C5 methylation)[17]. No prior studies have identified PXN modifications that enhance metabolic stability, partly due to the difficulty of synthetic modification and partly due to the prior incorrect assignment of the site of kinetic hydrolysis (C11 vs. C15)[38].
Test compound working solution: 5 μL of tested compound stock solution (10 mM in DMSO) were diluted with 495 μL of DMSO (concentration: 100 μM, 100% DMSO). Propantheline bromide working solution: 5 μL of propantheline bromide stock solution (10 mM in DMSO) were diluted with 495 μL of H2O (concentration: 100 […]
Supplementary Table 6. Test system.
Species/ Matrix Minimum No. of Anticoagulant Vendor
CD-1 Mouse 20 Male EDTA-K2 Beijing Vital River Laboratory
Human Plasma 3 Male & 3 Female EDTA-K2 BioreclamationIVT
The pooled frozen plasma was thawed in a water bath at 37 °C prior to experiment. Plasma was centrifuged at 1968 g (4000 rpm) for 5 min and the clots were removed. Using an Apricot automation work station, 98 μL/well of blank plasma were added to all 96-well reaction plates. (Blank, T0, T10, T30, T60 and T120) . An Apricot automation workstation was used to add 2 μL/well of working solution (100 μM) to all reaction plates except Blank. (T0, T10, T30, T60 and T120) . All reaction plates containing mix tures of compound a nd plasma were incubated at 37 °C in water bath. The reaction plates were incubated at 37 °C, and timer was started. At the end of incubation, 400 μL of stock solution was added (200 ng/mL tolbutamide and 200 ng/mL labetalol in MeCN) to precipitate protein and mixed thoroughly. Each plate was sealed and shaken for 20 minutes, then centrifuged at 1968 g (4000 rpm) and 4 °C for 20 minutes. After centrifugation, an Apricot automation workstation was used to transfer 150 μL supernatant. Each bioanalysis plate was sealed and shaken for 10 minutes prior to LC -MS/MS […]
The % remaining of test compound after incubation in plasma was calculated using following equation:
% Remaining= 100 x (PAR at appointed incubation time / PAR at T0 time) where PAR is the peak area ratio of analyte versus internal standard (IS) The appointed incubation time points are T0 (0 min), Tn (n=0, 10, 30, 60, 120 min)
Supplementary Table 7. %Remaining of test compound in two plasmas.
Compound Time point (min) % Remaining T½ (min)

[3] = D2O, 8.2 pH*; previously observed; cited from earlier work

Row | SMILES | loss in potency from PXN ([1]; [3H]TBOB binding) | IC50 ([1]; Supplementary Table 8 (5MePXN series)) | increase of extrapolated half-life by C5 methylation, mouse plasma ([2]; 5MePXN vs. PXN) | T½ in mouse plasma [2] | half-life at 2 µM [2] | remaining at 0 h, 2 µM [2] | remaining at 10 min, 2 µM [2] | remaining at 0.5 h, 2 µM [2] | remaining at 1 h, 2 µM [2] | remaining at 2 h, 2 µM [2] | t1/2 of degradation (pseudo-first order) [3] | IC50 ([1]; Supplementary Table 8 (PXN series))
1 | C=C(C)C1C2OC(=O)C1(C)C1(O)CC3OC34C(=O)OC2C41C (centres unmarked) [5MePXN, 5-methylpicrotoxinin] | 10 fold | 1.8 µM | 2.1 X | 3.45 h | 3.45 h | 100% | 97.9% | 87.9% | 75.7% | 68% | 120 h | –
2 | C=C(C)[C@@H]1[C@H]2OC(=O)[C@@H]1[C@]1(O)C[C@H]3O[C@]34C(=O)O[C@H]2[C@]14C [PXN, picrotoxinin] | – | – | – | 1.62 h | 1.62 h | 100% | 102% | 87.1% | 67.4% | 44.7% | 60 h | 0.21 µM
